Experimental data published in patent US7579376B2, “Geranyl compounds” (Ohgen Research Laboratories, Ltd., priority 2002, dated 2009).

Legend:
[1] = Toxicity against host mice (weight loss, death rate) in the HuH-7 antitumor test; type: in vivo; conditions: 250 μg/mouse intraperitoneally once per day for 3 weeks, six mice per group; for Toxicity Death rate: death rate during the test period; for Toxicity Weight loss: mouse weight relative to control group (100%)
Experimental: (§1) Carcinoma of HuH-7 cells (dendriform cell strain of human hepatoma) hypodermically implanted or subimplanted in the backs of 5-weeks old female nude mice (BALB/c, Ninox) was aseptically taken out and crushed into 5×5 mm sized pieces in a phosphate buffer solution (PBS), a piece of which then being hypodermically implanted in the backs of the nude mice.
(§2) Each test substance was dissolved in corn oil, and the solution was intraperitoneally administered to the nude mice consecutively once per day at a rate of 250 μg/mouse for 3 weeks, starting from a week after the implantation. After termination of the administration, the carcinomas were taken out and weighed to calculate the antitumor effect and the mice' weight loss by the following equations. For the test six mice per group were used, and the group administered with the solvent (corn oil) alone was made the control group:
(§3) Evaluations of antitumor effect and weight loss were conducted according to the following standard, where the control group values were held to be 100%.

[2] = tested on: HuH-7 cells (dendriform cell strain of human hepatoma); assay: Measurement of antitumor effect: HuH-7 carcinoma pieces hypodermically implanted in nude mice, carcinomas weighed after administration; type: in vivo; conditions: Huh-7, ip, 504 h, carcinoma weight relative to control group (100%), 250 μg/mouse intraperitoneally in corn oil once per day for 3 weeks, starting a week after implantation
Experimental: Measurement of Antitumor Effect
as §1, §2, §3
• −: >100%, +/−: 100˜75%, +: 75˜50%, ++: 50˜25%, +++: 25˜0% Weight Loss • −: >110%, +/−: 110˜100%, +: 100˜95%, ++: 95˜90%, +++: <90% Death Rate (Death Rate During the Test Period) • −: none • +/−: death occurred with high concentration administration (500 μg/mouse) • +: 1-3 mice dead • ++: 3-5 mice dead • +++: all 6 mice dead Synthetic Evaluation • −: weak antitumor effect and very strong toxicity against host mice • +/−: weak antitumor effect recognizable and toxicity against host mice also observable • +: a fixed level of antitumor effect observable but toxicity against host mice also strong • ++: strong antitumor effect observed and toxicity against host mice week • +++: strong antitumor effect observed and no toxicity against host mice

SMILES: CC(C)=CCC/C(C)=C/C(=O)NC1C(O)OC(CO)C(O)C1O (stereo not drawn)
- Toxicity Death rate [1]: −
- Toxicity Weight loss [1]: + (100˜95%)
- response vs control in vivo at 0.25 mg [2]: 0 to 25%

SMILES: CC(O)(CCO)CC(=O)NC1C(O)OC(CO)C(O)C1O (stereo not drawn)
- Toxicity Death rate [1]: −
- Toxicity Weight loss [1]: +/− (110˜100%)
- response vs control in vivo at 0.25 mg [2]: 25 to 50%

SMILES: CC(C)=CCC/C(C)=C/CNC(=O)/C=C/C(=O)NC/C=C(\C)CCC=C(C)C [N,N′-digeranylfumaric diamide, N,N′-digeranylfumaric Diamide]
- Toxicity Death rate [1]: −
- Toxicity Weight loss [1]: +/− (110˜100%)
- response vs control in vivo at 0.25 mg [2]: 25 to 50%

SMILES: CC(C)=CCC/C(C)=C/CNC(=O)CC(O)C(=O)NC/C=C(\C)CCC=C(C)C (stereo not drawn) [N,N′-digeranylmalic diamide, N,N′-digeranylmalic Diamide]
- Toxicity Death rate [1]: −
- Toxicity Weight loss [1]: + (100˜95%)
- response vs control in vivo at 0.25 mg [2]: 50 to 75%

SMILES: CC(=O)N[C@@H](Cc1ccc(O)cc1)C(=O)NC/C=C(\C)CCC=C(C)C [N-acetyltyrosine geranylamide, N-acetyltyrosine Geranylamide]
- Toxicity Death rate [1]: −
- Toxicity Weight loss [1]: +/− (110˜100%)
- response vs control in vivo at 0.25 mg [2]: 50 to 75%

SMILES: CC(C)=CCC/C(C)=C/C(=O)NC1C(O)OC(C)C(O)C1O (stereo not drawn) [N-fucosegeranamide]
- Toxicity Death rate [1]: −
- Toxicity Weight loss [1]: +/− (110˜100%)
- response vs control in vivo at 0.25 mg [2]: 25 to 50%

SMILES: CC(C)=CCC/C(C)=C/C(=O)N[C@@H](Cc1ccc(O)cc1)C(=O)O [N-geranoyltyrosine]
- Toxicity Death rate [1]: −
- Toxicity Weight loss [1]: +/− (110˜100%)
- response vs control in vivo at 0.25 mg [2]: 25 to 50%

SMILES: CC(C)=CCC/C(C)=C/CNC(=O)C1OC(O)C(O)C(O)C1O (stereo not drawn) [N-geranyl galacturonamide, N-geranylgalacturonamide]
- Toxicity Death rate [1]: +/−
- Toxicity Weight loss [1]: +/− (110˜100%)
- response vs control in vivo at 0.25 mg [2]: 0 to 25%

SMILES: CC(=O)C(=O)Nc1ccc(C(=O)NC/C=C(\C)CCC=C(C)C)cc1 [N-geranyl-4-pyruvoaminobenzamide, N-geranyl-p-pyruvoaminobenzamide]
- Toxicity Death rate [1]: −
- Toxicity Weight loss [1]: − (>110%)
- response vs control in vivo at 0.25 mg [2]: 25 to 50%

SMILES: CC(C)=CCC/C(C)=C/CNC(=O)[C@@H](N)Cc1ccc(O)cc1 [Tyrosine geranylamide, Tyrosine Geranylamide]
- Toxicity Death rate [1]: −
- Toxicity Weight loss [1]: +/− (110˜100%)
- response vs control in vivo at 0.25 mg [2]: 50 to 75%
